# Source: patent publication US10617680B2 (CELGENE QUANTICEL RESEARCH, INC., priority 2017, dated 2020)
# pIC50: −log10 of the molar value. Read-outs that look alike come from different tables or passages of the source.
# Columns and labels:
# [1] = target: CBP (Homo sapiens (Human), UniProt Q92793); assay: In vitro CBP inhibition (AlphaScreen, biotinylated H4-tetraacetyl peptide); assay type: binding
# In short: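 His-tagged CBP expressed in E. coli (50 nM final) incubated with biotinylated H4K5/8/12/16(Ac) peptide (20 nM final) in 50 mM HEPES pH 7.3, 10 mM NaCl, 0.25 mM TCEP, 0.1% BSA, 0.005% Brij-35, 0.4% DMSO, 20 min at room temp.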
# [2] = target: BRD4 (Homo sapiens (Human), UniProt O60885); assay: In vitro enzyme inhibition assay - BRD4 inhibition; assay type: binding; settings: BRD4 BD1, Table 30
# [3] = AlphaScreen, Table 29, read-out: CBP IC50
# [4] = Table 30, read-out: CRREBBP IC50
# Sequence of CBP (Q92793 1081-1197): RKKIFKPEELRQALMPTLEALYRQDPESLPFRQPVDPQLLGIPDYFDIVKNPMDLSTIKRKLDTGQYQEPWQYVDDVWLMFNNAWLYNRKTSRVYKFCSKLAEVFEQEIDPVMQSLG
smiles,measurement,setting,value
"Cn1cc(-c2cnn(CS(C)(=O)=O)c2)c(-c2ccccc2)cc1=O [Example 129, 1-methyl-5-(1-((methyl-sulfonyl)-methyl)-1H-pyrazol-4-yl)-4-phenylpyridin-2(1H)-one]",pIC50,[1]; [3],> 6.30
same,pIC50,[1]; [4],> 6.30
same,pIC50,[2],< 5.30
"Cc1cc(-c2nc(NS(C)(=O)=O)ncc2Oc2ccc(F)cc2F)cn(C)c1=O [N-(5-(2,4-difluorophenoxy)-4-(1,5-dimethyl-6-oxo-1,6-dihydropyridin-3-yl)pyrimidin-2-yl) methanesulfonamide]",pIC50,[1]; [4],< 5.30
same,pIC50,[2],> 6.30
"Cn1cc(-c2cnn(-c3ccccc3S(C)(=O)=O)c2)c(-c2ccc(Cl)cc2)cc1=O [Example 286, 4-(4-Chloro-phenyl)-5-[1-(2-methanesulfonyl-phenyl)-1H-pyrazol-4-yl]-1-methyl-1H-pyridin-2-one]",pIC50,[1]; [3],> 6.30
same,pIC50,[1]; [4],> 6.30
same,pIC50,[2],< 5.30
"Cc1cc(-c2cc(=O)n(C)cc2-c2cnn(Cc3ccccc3)c2)[nH]n1 [Example 115, 5-(1-benzyl-1H-pyrazol-4-yl)-1-methyl-4-(3-methyl-1H-pyrazol-5-yl) pyridin-2(1H)-one]",pIC50,[1]; [3],> 6.30
same,pIC50,[1]; [4],> 6.30
same,pIC50,[2],< 5.30
"CC(c1ccccc1)n1cc(-c2cn(C)c(=O)cc2N2CCOCC2)cn1 (stereo not shown) [Example 43, 1-methyl-4-morpholino-5-(1-(1-phenylethyl)-1H-pyrazol-4-yl) pyridin-2(1H)-one]",pIC50,[1]; [3],> 6.30
same,pIC50,[1]; [4],> 6.30
same,pIC50,[2],5.30 to 6.30
"Cn1cc(-c2cnn(Cc3ccccc3)c2)c(N2CC[C@@H](C(=O)O)C2)cc1=O [Example 74, (R)-1-(5-(1-benzyl-1H-pyrazol-4-yl)-1-methyl-2-oxo-1,2-dihydro-pyridin-4-yl)pyrrolidine-3-carboxylic acid]",pIC50,[1]; [3],> 6.30
same,pIC50,[1]; [4],> 6.30
same,pIC50,[2],< 5.30
"Cn1cc(-c2cnn(-c3ccccc3C(=O)O)c2)c(-c2ccccc2)cc1=O [Example 223, 2-[4-(1-Methyl-6-oxo-4-phenyl-1,6-dihydro-pyridin-3-yl)-pyrazol-1-yl]-benzoic acid]",pIC50,[1]; [3],> 6.30
same,pIC50,[1]; [4],> 6.30
same,pIC50,[2],< 5.30
"Cc1cc(-c2cnn(C(c3ccccc3)C3CC3)c2)cn(C)c1=O (stereo not shown) [Example 18, 5-(1-(cyclopropyl (phenyl)methyl)-1H-pyrazol-4-yl)-1,3-dimethyl-pyridin-2(1H)-one]",pIC50,[2],5.30 to 6.30
"Cn1cc(-c2cnn(Cc3ccccc3)c2)c(-n2ccnc2)cc1=O [Example 94, 5-(1-benzyl-1H-pyrazol-4-yl)-4-(1H-imidazol-1-yl)-1-methyl-pyridin-2(1H)-one]",pIC50,[1]; [3],> 6.30
same,pIC50,[1]; [4],> 6.30
same,pIC50,[2],< 5.30
"CCNc1ncc(-c2cc(=O)n(C)cc2-c2cnn(-c3ccccc3C#N)c2)cn1 [Example 323, 2-(4-(4-(2-(ethylamino)pyrimidin-5-yl)-1-methyl-6-oxo-1,6-dihydropyridin-3-yl)-1H-pyrazol-1-yl)benzonitrile]",pIC50,[1]; [3],> 6.30
same,pIC50,[1]; [4],> 6.30
same,pIC50,[2],5.30 to 6.30
"CC(c1ccccc1)n1cc(-c2cn(C)c(=O)cc2N2CCCC2)cn1 (stereo not shown) [Example 41, 1-methyl-5-(1-(1-phenylethyl)-1H-pyrazol-4-yl)-4-(pyrrolidin-1-yl) pyridin-2(1H)-one]",pIC50,[1]; [3],> 6.30
same,pIC50,[1]; [4],> 6.30
same,pIC50,[2],5.30 to 6.30
"Cn1cc(-c2cnn(Cc3ccccc3)c2)c(-c2ccon2)cc1=O [Example 121, 5-(1-benzyl-1H-pyrazol-4-yl)-4-(isoxazol-3-yl)-1-methyl-pyridin-2(1H)-one]",pIC50,[1]; [3],> 6.30
same,pIC50,[1]; [4],> 6.30
same,pIC50,[2],< 5.30
"CC(c1ccccc1)n1cc(-c2cn(C)c(=O)cc2OC2CCCC2)cn1 (stereo not shown) [Example 51, 4-(cyclopentyloxy)-1-methyl-5-(1-(1-phenylethyl)-1H-pyrazol-4-yl) pyridin-2(1H)-one]",pIC50,[1]; [3],> 6.30
"Cn1cc(-c2cnn(-c3ccccc3-c3nnn[nH]3)c2)c(C2CC2)cc1=O [Example 301, 4-Cyclopropyl-1-methyl-5-{1-[2-(1H-tetrazol-5-yl)-phenyl]-1H-pyrazol-4-yl}-1H-pyridin-2-one]",pIC50,[1]; [3],> 6.30
"CCOc1ccc(-c2cc(=O)n(C)cc2-c2cnn(-c3cccc(Cl)c3C#N)c2)cn1 [Example 365, 2-chloro-6-(4-(6-ethoxy-1′-methyl-6′-oxo-1′,6′-dihydro-[3,4′-bipyridin]-3′-yl)-1H-pyrazol-1-yl)benzonitrile]",pIC50,[1]; [3],> 6.30
"O=c1cc(-c2ccccc2)c(-c2cnn(Cc3ccccc3)c2)cn1C(F)F [Example 35, 5-(1-benzyl-1H-pyrazol-4-yl)-1-(difluoromethyl)-4-phenyl-pyridin-2(1H)-one]",pIC50,[1]; [3],5.30 to 6.30
